In one series the target is Cannabinoid receptor 1 (Homo sapiens, UniProt P21554). Nature of the series: Negative allosteric modulation of human CB1 receptor expressed in CHO-K1 cells assessed as inhibition of CP55940 induced beta arrestin recruitment preincubated for 30 mins followed by addition of CP55940 for 90 mins by chemiluminescence assay. It counts as functional, cell-based.
Series [1] can be described thus: Apparent permeability of the compound at 10 uM after 5 hrs by PAMPA. It counts as ADME.
Series [2] can be described thus: Ratio of drug level in […] brain to blood at 30mg/kg, ip after 1 hr by HPLC/MS/MS method. The class given is ADME, organism-based.
Series [3] can be described thus: Ratio of drug level in NMRI mouse brain to blood after 2 hrs. The class given is ADME, tissue-based.
A short description of series [4]: Cmax in NMRI mouse blood at 10 mg/kg, po. Also noted: dose 10 mg/kg, route oral. It counts as ADME, organism-based.
Series [5] in a line: Tmax in NMRI mouse at 10 mg/kg, po. The class given is ADME, organism-based. As to conditions: in vivo.
The nature of series [6]: Half life in NMRI mouse at 10 mg/kg, po. It counts as ADME, organism-based. The following applies: in vivo.
A short description of series [7]: AUC (0 to 8 hrs) in NMRI mouse at 10 mg/kg, po. The following applies: in vivo. Also noted: time < 8 hr, dose 10 mg/kg, route oral. It counts as ADME, organism-based.
The nature of series [8]: Half life in human liver microsomes at 3 uM in presence of NADPH by LC-MS/MS analysis. The class given is ADME, Microsome.
The nature of series [9]: Ratio of drug level in NMRI mouse brain to blood after 4 hrs. It counts as ADME, tissue-based.
Series [10] in a line: Half life in rat liver microsomes at 3 uM in presence of NADPH by LC-MS/MS analysis. The class given is ADME, Microsome.

Cannabinoid receptor 1, sequence (P21554 whole entry): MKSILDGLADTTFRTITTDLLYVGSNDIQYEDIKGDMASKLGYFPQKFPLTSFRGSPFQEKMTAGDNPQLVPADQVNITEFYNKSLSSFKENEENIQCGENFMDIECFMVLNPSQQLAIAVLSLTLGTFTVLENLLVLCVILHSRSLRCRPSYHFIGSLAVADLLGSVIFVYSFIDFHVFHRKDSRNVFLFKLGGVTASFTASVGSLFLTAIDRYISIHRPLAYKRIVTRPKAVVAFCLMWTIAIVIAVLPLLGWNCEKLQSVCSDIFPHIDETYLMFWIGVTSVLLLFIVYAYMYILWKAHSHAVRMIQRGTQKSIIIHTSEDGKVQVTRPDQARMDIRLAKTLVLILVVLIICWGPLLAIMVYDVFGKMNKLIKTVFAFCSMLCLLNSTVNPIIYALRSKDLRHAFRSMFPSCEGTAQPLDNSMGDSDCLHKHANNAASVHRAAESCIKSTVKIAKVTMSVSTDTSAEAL

Regarding `CCc1c(C(=O)NCCc2ccc(N3CCCCC3)cc2)[nH]c2ccc(Cl)cc12`, the IC50 on Cannabinoid receptor 1 turned out to be 2 nM. Moreover, in series [1], the Papp at 5 h, 10 µM was determined as 1.23 ×10⁻⁶ cm/s. Also, the Kp at 1 h in series [2] came out at 1.1.

On to `CN(C)c1ccc(-c2ccc(CNS(=O)(=O)c3cc4ccccc4[nH]3)cc2)cc1`, for which the IC50 at Cannabinoid receptor 1 came to 3 nM.

On to `Cc1c(S(=O)(=O)NCCCN2CCOCC2)[nH]c2ccccc12`, for which the IC50 at Cannabinoid receptor 1 is over 1000 nM.

With `CCc1c(S(=O)(=O)NCCc2ccc(N(C)C)cc2)[nH]c2ccc(Cl)cc12`, the IC50 at Cannabinoid receptor 1 came out at 130 nM.

As for `O=S(=O)(NCc1ccc(-c2ccc(F)cc2F)cn1)c1cc2cc(Cl)ccc2[nH]1`, at Cannabinoid receptor 1, the IC50 is 3 nM. Besides, the Papp at 5 h, 10 µM in series [1] was found to be 53.8 ×10⁻⁶ cm/s. Moreover, the Kp at 2 h in series [3] was 3.3. Moreover, the Cmax in [4] was 848 ng/mL. For the same molecule, the Tmax in series [5] came out at 60 min. The molecule further had a half-life in series [6] of 180 min. This molecule also showed an AUC(0-t) at 8 h in [7] of 4700 ng·h/mL.

As to `Cc1ccc(CNS(=O)(=O)c2[nH]c3ccccc3c2C)cc1`, the IC50 at Cannabinoid receptor 1 was found to be 200 nM. The half-life at 3 µM in [8] worked out at 7 min.

Consider `CCc1c(S(=O)(=O)NCCc2ccc(N3CCOCC3)cc2)[nH]c2ccc(Cl)cc12`, for which the IC50 at Cannabinoid receptor 1 was determined as 500 nM. Further, in series [8], the half-life at 3 µM amounted to 10 min.

For the molecule `CS(=O)(=O)c1ccc(-c2ccc(CNS(=O)(=O)c3cc4ccccc4[nH]3)cc2)cc1`, the IC50 on Cannabinoid receptor 1 was 15 nM.

As to `Cc1c(S(=O)(=O)NCCN2CCOCC2)[nH]c2ccccc12`, the IC50 on Cannabinoid receptor 1 is over 1000 nM.

Consider `COc1ccc(CNS(=O)(=O)c2cc3ccccc3[nH]2)cc1`, for which the IC50 on Cannabinoid receptor 1 lay within 200 to 400 nM. Further, the half-life at 3 µM in series [8] was found to be 2 min.

With `O=S(=O)(NCc1ccc(-c2ccccc2)cc1)c1cc2ccc(F)cc2[nH]1`, the IC50 at Cannabinoid receptor 1 worked out at 5 nM.

With `O=C(O)c1ccc(-c2ccc(CNS(=O)(=O)c3cc4ccccc4[nH]3)cc2)cc1`, the IC50 on Cannabinoid receptor 1 is over 1000 nM.

For the molecule `O=S(=O)(NCc1cccc(-c2ccc(F)cc2)c1)c1cc2ccccc2[nH]1`, the IC50 at Cannabinoid receptor 1 was found to be 137 nM.

For `O=S(=O)(NCc1ccc(-c2ccc(F)nc2F)cc1)c1cc2cc(Cl)ccc2[nH]1`, the IC50 on Cannabinoid receptor 1 was determined as 4 nM. Further, in [1], the Papp at 5 h, 10 µM turned out to be 141 ×10⁻⁶ cm/s. Further, the Cmax in [4] was determined as 672 ng/mL. In addition, the Tmax in series [5] amounted to 240 min. In series [6], this molecule gave a half-life of 474 min. The AUC(0-t) at 8 h in series [7] is 4380 ng·h/mL. The Kp at 4 h in series [9] is 0.8.

As to `Cc1c(S(=O)(=O)NCc2ccc(Cl)cc2)[nH]c2ccccc12`, on Cannabinoid receptor 1, the IC50 turned out to be 400 nM.

As to `COc1ccc(CNS(=O)(=O)c2cc3cc(OC)ccc3[nH]2)cc1`, on Cannabinoid receptor 1, the IC50 turned out to be 400 nM.

`CCOc1ccc(-c2ccc(CNS(=O)(=O)c3cc4ccccc4[nH]3)cc2)cn1`: at Cannabinoid receptor 1, the IC50 was determined as 10 nM.

On to `O=S(=O)(NCc1ccc(-c2ccc(F)cc2)cc1F)c1cc2cc(Cl)ccc2[nH]1`, for which the IC50 on Cannabinoid receptor 1 was 21 nM. Moreover, the half-life at 3 µM in series [8] was 146 min; in series [10], 112 min.

For the molecule `Cc1c(S(=O)(=O)NCCc2ccc(N3CCCCC3)cc2)[nH]c2ccccc12`, the IC50 on Cannabinoid receptor 1 is 200 nM.

Take `O=S(=O)(NCc1ccc(-c2ccc(F)cc2)cn1)c1cc2cc(Br)ccc2[nH]1`: at Cannabinoid receptor 1, the IC50 was 9 nM. The half-life at 3 µM in series [10] stood at 25 min.

For `NC(=O)c1cccc(-c2ccc(CNS(=O)(=O)c3cc4ccccc4[nH]3)cc2)c1`, the IC50 at Cannabinoid receptor 1 came out at 300 nM.

Regarding `Cc1c(S(=O)(=O)NCc2cccc(Cl)c2)[nH]c2ccccc12`, at Cannabinoid receptor 1, the IC50 stood at 800 nM.

Regarding `COc1ccc2[nH]c(S(=O)(=O)NCc3ccc(-c4ccc(OC(F)(F)F)cc4)cc3F)cc2c1`, the IC50 on Cannabinoid receptor 1 worked out at 40 nM. In series [10], the half-life at 3 µM was under 15 min.

For the molecule `COc1ccc2[nH]c(S(=O)(=O)NCc3ccc(-c4ccc(F)nc4)cc3)cc2c1`, at Cannabinoid receptor 1, the IC50 is 3 nM. Besides, the half-life at 3 µM in [8] and in series [10] was under 15 min throughout.

For `O=S(=O)(NCc1ccc(-c2ccccc2)cc1)c1[nH]c2ccccc2c1CO`, the IC50 at Cannabinoid receptor 1 is 12 nM.

Turning to `O=S(=O)(NCc1ccc(-c2ccc(F)cc2F)cc1)c1cc2cc(Cl)ccc2[nH]1`, at Cannabinoid receptor 1, the IC50 was found to be 4 nM. The half-life at 3 µM came out at 111 min in series [8] and 84 min in series [10].

With `COc1ccc(CNS(=O)(=O)c2[nH]c3ccccc3c2C)cc1`, at Cannabinoid receptor 1, the IC50 was 200 nM.

Take `COc1ccc(CNS(=O)(=O)c2[nH]c3ccc(Cl)cc3c2C)cc1`: the IC50 on Cannabinoid receptor 1 was 500 nM.

With `Cc1c(S(=O)(=O)NCc2ccc(C(F)(F)F)cc2)[nH]c2ccccc12`, at Cannabinoid receptor 1, the IC50 stood at 250 nM.

Take `Cc1c(S(=O)(=O)NCCc2ccccc2)[nH]c2ccccc12`: the IC50 at Cannabinoid receptor 1 was 200 to 1000 nM. The half-life at 3 µM in series [8] stood at 3 min.

Consider `Cc1c(S(=O)(=O)NCC2CCCCC2)[nH]c2ccccc12`, for which the IC50 at Cannabinoid receptor 1 is over 1000 nM.

For the molecule `COc1ccc2[nH]c(S(=O)(=O)NCc3ccc(-c4ccc(CO)cc4)cc3)cc2c1`, at Cannabinoid receptor 1, the IC50 was 112 nM.

As to `Cc1c(S(=O)(=O)NCCc2ccc(N3CCOCC3)cc2)[nH]c2ccccc12`, the IC50 at Cannabinoid receptor 1 was over 1000 nM.

For `Cc1c(S(=O)(=O)NCc2ccccn2)[nH]c2ccccc12`, the IC50 at Cannabinoid receptor 1 is over 1000 nM.

`Cc1cc(-c2ccc(F)cc2)ccc1CNS(=O)(=O)c1cc2cc(Cl)ccc2[nH]1`: the IC50 on Cannabinoid receptor 1 is over 1000 nM.

In the case of `O=S(=O)(NCc1ccc(-c2ccccc2)cc1)c1cc2ccccc2[nH]1`, the IC50 on Cannabinoid receptor 1 amounted to 2 nM.

Regarding `O=S(=O)(NCc1ccc(-c2ccccc2)cc1)c1cc2cc(Br)ccc2[nH]1`, the IC50 on Cannabinoid receptor 1 came out at 6 nM. Further, the half-life at 3 µM in series [10] is under 15 min.

As to `COCc1c(S(=O)(=O)NCc2ccc(-c3ccccc3)cc2)[nH]c2ccccc12`, the IC50 on Cannabinoid receptor 1 came to 10 nM.

Take `COc1ccc2[nH]c(S(=O)(=O)NCc3ccc(-c4ccc(C#N)cc4)cc3)cc2c1`: the IC50 on Cannabinoid receptor 1 was determined as 8 nM. The half-life at 3 µM in series [10] was 26 min.

Take `CC(NS(=O)(=O)c1cc2ccccc2[nH]1)c1ccc(-c2ccc(F)cc2)cc1` (configuration not stated): the IC50 on Cannabinoid receptor 1 worked out at 41 nM.

For `O=S(=O)(NCc1ccc(-c2cccnc2)cc1)c1cc2ccccc2[nH]1`, on Cannabinoid receptor 1, the IC50 amounted to 7 nM. Also, in [10], the half-life at 3 µM is under 15 min.

Consider `O=S(=O)(NCc1ccc(-c2ccc(F)cc2)cc1)c1cc2ccccc2[nH]1`, for which, at Cannabinoid receptor 1, the IC50 was determined as 1 nM. The half-life at 3 µM in series [10] was under 15 min.

With `O=S(=O)(NCc1ccc(-c2ccc(F)cc2)cc1)c1cc2cc(Br)ccc2[nH]1`, on Cannabinoid receptor 1, the IC50 was determined as 12 nM. Besides, the half-life at 3 µM in series [10] was found to be 130 min.

As to `CS(=O)(=O)c1ccc(-c2ccc(CNS(=O)(=O)c3cc4cc(Cl)ccc4[nH]3)cc2)cc1`, at Cannabinoid receptor 1, the IC50 was found to be 15 nM. For the same molecule, the half-life at 3 µM is 41 min in series [8] and 36 min in series [10].

As to `Nc1ccc(-c2ccc(CNS(=O)(=O)c3cc4cc(Cl)ccc4[nH]3)cc2)cn1`, the IC50 on Cannabinoid receptor 1 was determined as 85 nM.

Take `Cc1c(S(=O)(=O)NCc2ccccc2)[nH]c2ccccc12`: the IC50 at Cannabinoid receptor 1 was over 1000 nM.

Turning to `Cc1c(S(=O)(=O)NCc2cccnc2)[nH]c2ccccc12`, the IC50 at Cannabinoid receptor 1 was over 1000 nM.

With `Cc1c(S(=O)(=O)NCCc2ccc(N(C)C)cc2)[nH]c2ccccc12`, the IC50 on Cannabinoid receptor 1 turned out to be 300 nM. Also, the half-life at 3 µM in series [8] amounted to 13 min.

In the case of `CCc1c(S(=O)(=O)NCCc2ccc(N3CCCCC3)cc2)[nH]c2ccc(Cl)cc12`, the IC50 on Cannabinoid receptor 1 was 120 nM. The half-life at 3 µM in [8] is 14 min.

Take `O=S(=O)(NCc1ccc(-c2ccc(F)cc2F)cn1)c1cc2cc(Br)ccc2[nH]1`: at Cannabinoid receptor 1, the IC50 stood at 4 nM. Further, the values for the half-life at 3 µM in series [8] and in series [10] were 53 min and 33 min, respectively.

Turning to `CCc1c(S(=O)(=O)NCc2ccc(Cl)cc2)[nH]c2ccc(Cl)cc12`, the IC50 on Cannabinoid receptor 1 is over 1000 nM.

On to `Cc1cc(CNS(=O)(=O)c2cc3cc(Cl)ccc3[nH]2)ccc1-c1ccc(F)cc1`, for which the IC50 on Cannabinoid receptor 1 was over 1000 nM.

`Cc1ccc(-c2ccc(CNS(=O)(=O)c3cc4ccccc4[nH]3)cc2)cc1`: on Cannabinoid receptor 1, the IC50 came out at 3 nM.

As for `O=S(=O)(NCc1ccc(-c2ccc(F)nc2)cc1)c1cc2ccc(Cl)cc2[nH]1`, on Cannabinoid receptor 1, the IC50 was found to be 5 nM. The half-life at 3 µM in series [8] stood at 22 min; in series [10] it was 23 min. Besides, the Kp at 2 h in series [3] is 2.7.

In the case of `O=S(=O)(NCc1ccc(-c2ccccc2)cc1)c1cc2ccc(Cl)cc2[nH]1`, the IC50 at Cannabinoid receptor 1 was 4 nM. Further, in [10], the half-life at 3 µM is under 15 min.

As to `O=S(=O)(NCc1ccc(-c2ccsc2)cc1)c1cc2ccccc2[nH]1`, the IC50 on Cannabinoid receptor 1 was 12 nM.

Take `COc1cc(-c2ccc(CNS(=O)(=O)c3cc4ccccc4[nH]3)cc2)ccc1O`: the IC50 at Cannabinoid receptor 1 was determined as 33 nM.

For `COc1ccc(-c2ccc(CNS(=O)(=O)c3cc4ccccc4[nH]3)cc2)cc1`, the half-inhibitory concentration (IC50) at Cannabinoid receptor 1 came to 2 nM.

For the molecule `Cc1c(S(=O)(=O)NCc2ccc(Cl)c(Cl)c2)[nH]c2ccccc12`, the IC50 at Cannabinoid receptor 1 is 800 nM.

`Cc1c(S(=O)(=O)NCc2ccc(-c3ccccc3)cc2)[nH]c2ccccc12`: the IC50 at Cannabinoid receptor 1 was found to be 8 nM.

Regarding `COc1ccc(-c2ccc(CNS(=O)(=O)c3cc4ccccc4[nH]3)cc2)c(OC)c1`, the IC50 on Cannabinoid receptor 1 was 22 nM.

Values taken from ChEMBL document CHEMBL4431361, “Development of indole sulfonamides as cannabinoid receptor negative allosteric modulators” (Bioorg Med Chem Lett, 2016).
